# According to patent publication US20240058328A1, “MASITINIB FOR THE TREATMENT OF ALZHEIMER'S DISEASE” (AB SCIENCE, priority 2020, published 2024):
# System: patients with Alzheimer's disease
# Assay: Phase 3 study AB09004: change from baseline in ADAS-Cog score
# Type: in vivo, human
# Parameters: key to δLSM (ADAS-Cog) / 8LSM (ADAS-Cog): LSM diff. of ADAS-Cog change from baseline; negative = improvement
# Conditions: for ALSM (ADAS-Cog) / 8LSM (ADAS-Cog) / ΔLSM (ADAS-Cog) / δLSM (ADAS-Cog): 4.5 mg/kg/day; for ALSM (ADAS-Cog) / ΔLSM (ADAS-Cog): vs placebo, week 24; for 8LSM (ADAS-Cog) / δLSM (ADAS-Cog): week 24 from baseline
# Experimental: An international, multicenter, randomized, double-blind, placebo-controlled phase 3 study was conducted with the objective to evaluate oral masitinib at a dose of 4.5 mg/kg/day as a treatment for Alzheimer's disease.
# Eligible patients, aged at least 50 years, were diagnosed with dementia of Alzheimer's type according to Diagnostic and Statistical Manual of Mental Disorders (DSM)-IV criteria, and probable Alzheimer's disease according to NINCDS-ADRDA (National Institute of Neurological and Communicative Diseases and Stroke/Alzheimer's Disease and Related Disorders Association) criteria. […] Patients with any other cause of dementia not due to Alzheimer's disease were ineligible for the study.
# Eligible patients were treated during 24 weeks with masitinib at a dose of 4.5 mg/kg/day (mg per kilo body weight per day) or with placebo. Treatment was administered as add-on therapy in patients who had been treated for a minimum of 6 months with a stable dose of cholinesterase inhibitors (donepezil, rivastigmine or galantamine) and/or memantine, with no changes foreseen in therapy throughout the study.
# Primary analysis was based on the co-primary endpoints of: • Change from baseline in Alzheimer's Disease Cooperative Study Activities of Daily Living (ADCS-ADL) score. The ADCS-ADL assesses the competence of patients with Alzheimer's disease in basic and instrumental activities of daily living (ADLs). • Change from baseline in Alzheimer's Disease Assessment Scale-Cognitive Subscale (ADAS-Cog). The ADAS-Cog assesses cognition and memory.
# Treatment effect (masitinib versus placebo) was assessed based on absolute change from baseline to week 24 by using an analysis of covariance model (ANCOVA linear model) with the following factors: treatment, baseline value, and stratification criteria of baseline MMSE score, age, ADCS-ADL total score, and ADAS-Cog total score.
# The ADAS-Cog version used in study AB09004 included 11 items regrouped as follows: language (items 1, 2, 3), praxia and gnosia (items 5, 7, 8, 9), memory (items 4, 10, 11), orientation (item 6). The items range either from 0 to 5 (items 1, 2, 3, 5, 7, 8, 9, 11), or from 0 to 8 (item 6), or from 0 to 10 (item 4), or from 0 to 12 (item 10). The global score, which is the sum of the 11 items, ranges from 0 to 70, with higher scores indicating greater cognitive impairment. Results are expressed as a least-squares means difference (δLSM) of absolute change in ADAS-Cog score from baseline; that is to say, the change over time in the ADAS-Cog score, or in other words the difference between the ADAS-Cog score at baseline and the ADAS-Cog score after treatment with masitinib or with placebo. A decrease in ADAS-Cog score with respect to baseline (i.e., a negative δLSM) indicates an improvement in the patient and therefore disease stability, whereas an increase in ADAS-Cog score with respect to baseline (i.e., a positive δLSM) indicates a worsening in the patient and therefore disease progression. Treatment-effect is reported as the difference between treatment-arms (ΔLSM) (calculated as δLSM[masitinib] minus δLSM[placebo]), with a negative value indicating a beneficial effect of treatment with masitinib as compared with placebo. In a scenario where both treatment-arms show worsening in cognitive function (i.e., a positive δLSM), then a negative ΔLSM indicates a beneficial treatment effect for masitinib, i.e., the rate of decline in masitinib treated patients is slower than that of patients from the placebo-arm. […]
smiles,measurement,setting,value
"Cc1ccc(NC(=O)c2ccc(CN3CCN(C)CC3)cc2)cc1Nc1nc(-c2cccnc2)cs1 [masitinib, 4-(4-methylpiperazin-1-ylmethyl)-N-[4-methyl-3-(4-pyridin-3ylthiazol-2-ylamino)phenyl]benzamide]",ALSM (ADAS-Cog),Baseline ADAS-Cog >32,−1.6044 points
same,8LSM (ADAS-Cog),Baseline ADAS-Cog >32,−7.2739
same,ALSM (ADAS-Cog),Baseline ADAS-Cog >40,−0.2351 points
same,8LSM (ADAS-Cog),Baseline ADAS-Cog >40,−4.9348
same,ALSM (ADAS-Cog),Baseline ADAS-Cog ≤32,−2.1011 points
same,8LSM (ADAS-Cog),Baseline ADAS-Cog ≤32,−1.5266
same,ALSM (ADAS-Cog),Baseline ADAS-Cog ≤40,−2.3299 points
same,8LSM (ADAS-Cog),Baseline ADAS-Cog ≤40,−1.4472
same,ΔLSM (ADAS-Cog),Diagnosis >2 years,−1.3581 points
same,δLSM (ADAS-Cog),Diagnosis >2 years,−1.2197
same,ΔLSM (ADAS-Cog),Diagnosis >3 years,−0.3770 points
same,δLSM (ADAS-Cog),Diagnosis >3 years,−0.7048
same,ΔLSM (ADAS-Cog),Diagnosis >4 years,−1.3426 points
same,δLSM (ADAS-Cog),Diagnosis >4 years,−1.2607
same,ΔLSM (ADAS-Cog),Diagnosis >5 years,−1.4470 points
same,δLSM (ADAS-Cog),Diagnosis >5 years,−1.4756
same,ΔLSM (ADAS-Cog),Diagnosis ≤2 years,−2.7754 points
same,δLSM (ADAS-Cog),Diagnosis ≤2 years,−1.6958
same,ΔLSM (ADAS-Cog),Diagnosis ≤3 years,−2.8700 points
same,δLSM (ADAS-Cog),Diagnosis ≤3 years,−1.7671
same,ΔLSM (ADAS-Cog),Diagnosis ≤4 years,−2.3435 points
same,δLSM (ADAS-Cog),Diagnosis ≤4 years,−1.4948
same,ΔLSM (ADAS-Cog),Diagnosis ≤5 years,−2.2599 points
same,δLSM (ADAS-Cog),Diagnosis ≤5 years,−1.4394
same,ΔLSM (ADAS-Cog),MMSE <13,−0.4996 points
same,δLSM (ADAS-Cog),MMSE <13,2.1702
same,ΔLSM (ADAS-Cog),MMSE <14,1.0497 points
same,δLSM (ADAS-Cog),MMSE <14,3.6165
same,ΔLSM (ADAS-Cog),MMSE <15,−1.0976 points
same,δLSM (ADAS-Cog),MMSE <15,1.5482
same,ΔLSM (ADAS-Cog),MMSE <16,−1.0624 points
same,δLSM (ADAS-Cog),MMSE <16,0.8538
same,ΔLSM (ADAS-Cog),MMSE <17,−1.0127 points
same,δLSM (ADAS-Cog),MMSE <17,0.9251
same,ΔLSM (ADAS-Cog),MMSE [12-20],−1.7387 points
same,δLSM (ADAS-Cog),MMSE [12-20],−1.0350
same,ΔLSM (ADAS-Cog),MMSE [25-21],−2.8929 points
same,δLSM (ADAS-Cog),MMSE [25-21],−2.4719
same,ΔLSM (ADAS-Cog),MMSE ≥13,−2.1488 points
same,δLSM (ADAS-Cog),MMSE ≥13,−1.4717
same,ΔLSM (ADAS-Cog),MMSE ≥14,−2.4192 points
same,δLSM (ADAS-Cog),MMSE ≥14,−1.8028
same,ΔLSM (ADAS-Cog),MMSE ≥15,−2.2577 points
same,δLSM (ADAS-Cog),MMSE ≥15,−1.8834
same,ΔLSM (ADAS-Cog),MMSE ≥16,−2.2907 points
same,δLSM (ADAS-Cog),MMSE ≥16,−2.0435
same,ΔLSM (ADAS-Cog),MMSE ≥17,−2.4915 points
same,δLSM (ADAS-Cog),MMSE ≥17,−2.3004
same,ΔLSM (ADAS-Cog),Overall Population,−2.1485 points
same,δLSM (ADAS-Cog),Overall Population,−1.4550
same,Δsub/Δoverall,"ratio of ΔLSM (ADAS-Cog) at W24, Diagnosis ≤2 years vs overall study population",1.29
same,Δsub/Δoverall,"ratio of ΔLSM (ADAS-Cog) at W24, Diagnosis ≤3 years vs overall study population",1.34
same,Δsub/Δoverall,"ratio of ΔLSM (ADAS-Cog) at W24, Diagnosis ≤4 years vs overall study population",1.09
same,Δsub/Δoverall,"ratio of ΔLSM (ADAS-Cog) at W24, Diagnosis ≤5 years vs overall study population",1.05
same,Δsub/Δoverall,"ratio of ΔLSM (ADAS-Cog) at W24, MMSE [20-12] vs overall study population",0.81
same,Δsub/Δoverall,"ratio of ΔLSM (ADAS-Cog) at W24, MMSE [25-21] vs overall study population",1.35
same,Δsub/Δoverall (percentage improvement),"ΔLSM (ADAS-Cog) at W24, Diagnosis ≤2 years vs overall study population",29%
same,Δsub/Δoverall (percentage improvement),"ΔLSM (ADAS-Cog) at W24, Diagnosis ≤2 years vs overall study population, listed as M4.5",(29%)
same,Δsub/Δoverall (percentage improvement),"ΔLSM (ADAS-Cog) at W24, Diagnosis ≤3 years vs overall study population",34%
same,Δsub/Δoverall (percentage improvement),"ΔLSM (ADAS-Cog) at W24, Diagnosis ≤3 years vs overall study population, listed as M4.5",(34%)
same,Δsub/Δoverall (percentage improvement),"ΔLSM (ADAS-Cog) at W24, Diagnosis ≤4 years vs overall study population",(9%)
same,Δsub/Δoverall (percentage improvement),"ΔLSM (ADAS-Cog) at W24, Diagnosis ≤5 years vs overall study population",(5%)
same,Δsub/Δoverall (percentage improvement),"ΔLSM (ADAS-Cog) at W24, MMSE [20-12] vs overall study population",(−19%)
same,Δsub/Δoverall (percentage improvement),"ΔLSM (ADAS-Cog) at W24, MMSE [25-21] vs overall study population",35%
same,Δsub/Δoverall (percentage improvement),"ΔLSM (ADAS-Cog) at W24, MMSE [25-21] vs overall study population, listed as M4.5",(35%)
same,improved benefit relative to complementary subpopulation,"ΔLSM (ADAS-Cog), baseline MMSE 25 to 21 relative to MMSE 20 to 12, printed as 'between 99% to 66%'",66%
